Data set [1] deals with Mus musculus. Kind of data set: Antinociceptive activity in Kunming mouse model assessed as increase in paw withdrawal latency at 10 micromol/kg, sc at 10 to 90 mins by radiant heat paw withdrawal assay. In kind it is functional, organism-based. Particulars: dose 10.0 µmol/kg, time 10-90 min.
Data set [2] concerns Mus musculus. Briefly: Antinociceptive activity in Kunming mouse model assessed as increase in paw withdrawal latency at 20 nmol, icv pretreated for 20 mins with NTI followed by compound addition and measured upto 10 mins by radiant heat paw withdrawal assay. It counts as functional, organism-based. Conditions: time min <=10.
For data set [3], the system named is Mus musculus. Kind of data set: Antinociceptive activity in Kunming mouse model assessed as increase in paw withdrawal latency at 10 micromol/kg, sc pretreated with icv dosed naloxone for 5 mins followed by compound addition by radiant heat paw withdrawal assay. Conditions: dose 10.0 µmol/kg. In kind it is functional, organism-based.
Data set [4] deals with Delta-type opioid receptor (Homo sapiens) (UniProt P41143). Briefly: Agonist activity at delta-opioid receptor (unknown origin) expressed in HEK293 cells assessed as inhibition of forskolin-induced cAMP accumulation incubated for 15 mins by ELISA. It counts as functional, cell-based. In general terms: Cyclic AMP is a second messenger, typically raised through Gs and lowered through Gi signalling.
Delta-type opioid receptor (Homo sapiens), sequence (P41143 whole entry): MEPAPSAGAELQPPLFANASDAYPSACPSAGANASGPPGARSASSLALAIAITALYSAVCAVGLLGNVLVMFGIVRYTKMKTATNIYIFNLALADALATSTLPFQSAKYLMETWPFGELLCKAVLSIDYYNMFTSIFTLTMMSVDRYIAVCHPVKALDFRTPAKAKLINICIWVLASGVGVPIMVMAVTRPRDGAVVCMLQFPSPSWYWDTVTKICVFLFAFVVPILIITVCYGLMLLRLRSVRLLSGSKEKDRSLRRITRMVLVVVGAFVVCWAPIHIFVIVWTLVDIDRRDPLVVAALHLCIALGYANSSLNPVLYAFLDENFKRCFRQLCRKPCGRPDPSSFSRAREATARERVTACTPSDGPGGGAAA

In data set [5] the test system is Mus musculus. Briefly: Antiallodynic activity in icv dosed Kunming mouse model of spared nerve injury-induced neuropathic pain assessed as increase in ipsilateral withdrawal threshold by von Frey test. Particulars: dose 0.67-6.7 nmol. In kind it is functional, organism-based.
The species entered for data set [6] is Mus musculus. Briefly: Antinociceptive tolerance in Kunming mouse pretreated with saline for 2 hrs followed by compound addition by radiant heat paw withdrawal test. It counts as functional.
A short description of data set [7]: Toxicity in Kunming mouse model assessed as conditioned place preference time at 10 micromol/kg, sc. Particulars: in vivo, dose 10 µmol/kg.
The next data set concerns Vas deferens. Briefly: Inhibition of electric-field induced mouse vas deferens contraction. In kind it is functional, tissue-based.
Data set [8] addresses Mu-type opioid receptor (Rattus norvegicus, UniProt P33535). Briefly: Displacement of [3H]DAMGO from MOR in Wistar rat brain membranes measured after 1 hr by scintillation counting method. It counts as cell membranes, Membrane. For orientation: Displacement assays read how much labelled ligand stays bound in the presence of the test substance.
The subject of data set [9] is Mus musculus. Kind of data set: Antiallodynic activity in Kunming mouse model of spared nerve injury-induced neuropathic pain assessed as increase in paw withdrawal threshold at 0.67 to 6.7 nmol, icv by von Frey test. In kind it is functional, organism-based. Conditions: dose 0.67-6.7 nmol, time min <=50, TDE = time-dependent effect.
Data set [10] has as its system Mus musculus. Briefly: Antiallodynic activity in Kunming mouse model of CFA-induced inflammatory pain assessed as increase in ipsilateral withdrawal threshold at 0.67 to 6.7 nmol, icv by von Frey test. It counts as functional, organism-based. Particulars: dose 0.67-6.7 nmol, time 10-50 min, TDE = time-dependent effect.
The subject of data set [11] is Mus musculus. Briefly: Chronic antinociceptive tolerance in Kunming mouse pretreated with compound followed by repeated compound addition at 10 micromol/kg, sc once daily for 7 days and measured after 10 mins by radiant heat paw withdrawal test. In kind it is functional, organism-based. Particulars: dose 10.0 µmol/kg, time 7.0 day.
Data set [12] relates to Mus musculus. Kind of data set: Antinociceptive tolerance in Kunming mouse pretreated with compound for 3 hrs followed by challenge with second dose of compound at 20 nmol, icv and measured after 1 to 1.5 hrs by radiant heat paw withdrawal test. Particulars: time 4-4.5 hrs. In kind it is functional, organism-based.
Data set [13] relates to Mus musculus. Kind of data set: Chronic antinociceptive tolerance in Kunming mouse assessed as maximum possible effect pretreated with compound followed by repeated compound addition at 20 nmol, icv once daily for 7 days and measured after 10 mins by radiant heat paw withdrawal test. In kind it is functional. Particulars: time 7 day.
The target of data set [14] is Mu-type opioid receptor (Homo sapiens, UniProt P35372). Kind of data set: Agonist activity at mu-opioid receptor (unknown origin) expressed in HEK293 cells assessed as inhibition of forskolin-induced cAMP accumulation incubated for 15 mins by ELISA. In kind it is functional, cell-based.
Mu-type opioid receptor (Homo sapiens, UniProt P35372), sequence (P35372 whole entry): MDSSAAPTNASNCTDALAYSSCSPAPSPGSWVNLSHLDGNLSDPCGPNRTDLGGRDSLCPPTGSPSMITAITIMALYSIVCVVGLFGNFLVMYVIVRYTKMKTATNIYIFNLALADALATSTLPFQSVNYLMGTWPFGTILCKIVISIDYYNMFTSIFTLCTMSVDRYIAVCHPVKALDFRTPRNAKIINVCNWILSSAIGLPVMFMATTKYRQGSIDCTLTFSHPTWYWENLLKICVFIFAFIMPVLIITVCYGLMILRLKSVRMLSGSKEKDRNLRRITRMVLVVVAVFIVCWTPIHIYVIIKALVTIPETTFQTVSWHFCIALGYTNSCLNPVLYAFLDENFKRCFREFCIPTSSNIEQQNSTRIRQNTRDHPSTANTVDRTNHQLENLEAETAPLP
The next data set is filed under the species Rattus norvegicus. Briefly: Selectivity index, ratio of Ki for displacement of [3H]-U69593 from KOR in Wistar rat brain membranes to Ki for displacement of [3H]DAMGO from MOR in Wistar rat brain membranes. It counts as cell membranes.
In data set [15] the test system is Mus musculus. Briefly: Chronic antinociceptive tolerance in Kunming mouse pretreated with compound followed by repeated compound addition at 20 nmol, icv once daily for 7 days and measured after 10 mins by radiant heat paw withdrawal test. Particulars: time 7.0 day. It counts as functional, organism-based.

Activity calls are given as the source filed them.

Mu-type opioid receptor (Rattus norvegicus, UniProt P33535), sequence (P33535 whole entry): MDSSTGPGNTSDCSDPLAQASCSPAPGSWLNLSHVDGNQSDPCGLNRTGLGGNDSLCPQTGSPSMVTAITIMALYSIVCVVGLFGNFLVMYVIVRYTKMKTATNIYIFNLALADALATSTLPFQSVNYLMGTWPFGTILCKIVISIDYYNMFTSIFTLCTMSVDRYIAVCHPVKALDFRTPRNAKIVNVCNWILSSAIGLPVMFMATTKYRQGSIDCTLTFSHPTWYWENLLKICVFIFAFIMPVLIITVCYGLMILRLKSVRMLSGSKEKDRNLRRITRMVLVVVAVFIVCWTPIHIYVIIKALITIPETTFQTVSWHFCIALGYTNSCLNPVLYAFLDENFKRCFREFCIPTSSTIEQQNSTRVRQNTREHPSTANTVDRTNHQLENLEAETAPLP

Take `Cc1cc(O)cc(C)c1C[C@H](N)C(=O)N[C@H]1CSSC[C@@H](C(=O)NCC(=O)N[C@H](CCCNC(=N)N)C(=O)N[C@H](CCCNC(=N)N)C(=O)O)NC(=O)[C@H](Cc2ccc(Cl)cc2)NC(=O)[C@H](Cc2ccccc2)NC1=O`: the outcome with Mus musculus [1] and in the data set with Mus musculus [2] was Active. Also, the outcome (in the data set on Mus musculus [3]; in data set [4]; in the data set with Mus musculus [11]; in the data set with Mus musculus [12]) was inactive. Moreover, the Activity entry with Mus musculus [5] was “Dose-Dependent Effect”; in the data set with Mus musculus [9], “Tde”; with Mus musculus [10], “Tde”. Besides, the ED50 in the data set listed under Mus musculus [6] is 2.3 nmol. For the same molecule, the Time in data set [7] amounted to 453 s. The molecule further displayed an IC50 in the data set with Vas deferens of 49.3 nM. The same molecule came in with a Ki on Mu-type opioid receptor [8] of 6.06 nM. The MPE in the data set with Mus musculus [13] worked out at 77.25%. The EC50 on Mu-type opioid receptor [14] was 14.3 nM. The Ratio Ki in the data set filed under Rattus norvegicus was 710.
Turning to `Cc1cc(O)cc(C)c1C[C@H](N)C(=O)N[C@H]1CSSC[C@@H](C(=O)NCC(=O)N[C@H](CCCNC(=N)N)C(=O)N[C@H](CCCNC(=N)N)C(=O)O)NC(=O)[C@H](Cc2ccc(Cl)cc2)NC(=O)[C@H](Cc2c[nH]c3ccccc23)NC1=O`, the outcome in the data set on Mus musculus [1] and in the data set on Mus musculus [2] was Active. Besides, the result (in the data set on Mus musculus [3]; in [4]; with Mus musculus [15]; with Mus musculus [11]; in the data set with Mus musculus [12]) was inactive. The results for the Activity entry in the data set with Mus musculus [5], in the data set with Mus musculus [9] and in the data set with Mus musculus [10] were “Dose-Dependent Effect”, “Tde” and “Tde”, respectively. Also, the ED50 in the data set listed under Mus musculus [6] is listed as 2.2 nmol. Further, the Time in data set [7] worked out at 453 s. The molecule also yielded an IC50 with Vas deferens of 47.5 nM. The molecule further returned a Ki at Mu-type opioid receptor [8] of 5.78 nM. Moreover, the EC50 at Mu-type opioid receptor [14] turned out to be 13.6 nM. Further, the Ratio Ki in the data set filed under Rattus norvegicus stood at 548.

Usually IC50 stands for the midpoint of a concentration-inhibition curve. What is called Ki is a dissociation constant, usually derived from enzyme kinetics or from competition with a known ligand. Lower therefore signals higher affinity. By EC50 is commonly meant the concentration at which the effect is half-maximal.

The values are drawn from ChEMBL document CHEMBL5029183 (J Med Chem, 2021).
